In brackets after ≈: the same amount, converted by molar mass. Activity calls are given as the source filed them. The calls are words filed in the database; no cut-off is given here.
Legend:
[1] = target: Phosphatidylinositol 4,5-bisphosphate 3-kinase catalytic subunit alpha isoform (Homo sapiens, UniProt P42336); test: Inhibition of human PI3Kalpha after 15 mins
[2] = (§1) Apparent permeability of the compound in human Caco2 cells; assay type: ADME, cell-based; settings: Caco-2
[3] = target: T1, Phosphatidylinositol 4,5-bisphosphate 3-kinase catalytic subunit beta isoform (Homo sapiens, UniProt P42338); test: Inhibition of human PI3Kbeta after 15 mins
T1 sequence (P42338 whole entry, canonical isoform): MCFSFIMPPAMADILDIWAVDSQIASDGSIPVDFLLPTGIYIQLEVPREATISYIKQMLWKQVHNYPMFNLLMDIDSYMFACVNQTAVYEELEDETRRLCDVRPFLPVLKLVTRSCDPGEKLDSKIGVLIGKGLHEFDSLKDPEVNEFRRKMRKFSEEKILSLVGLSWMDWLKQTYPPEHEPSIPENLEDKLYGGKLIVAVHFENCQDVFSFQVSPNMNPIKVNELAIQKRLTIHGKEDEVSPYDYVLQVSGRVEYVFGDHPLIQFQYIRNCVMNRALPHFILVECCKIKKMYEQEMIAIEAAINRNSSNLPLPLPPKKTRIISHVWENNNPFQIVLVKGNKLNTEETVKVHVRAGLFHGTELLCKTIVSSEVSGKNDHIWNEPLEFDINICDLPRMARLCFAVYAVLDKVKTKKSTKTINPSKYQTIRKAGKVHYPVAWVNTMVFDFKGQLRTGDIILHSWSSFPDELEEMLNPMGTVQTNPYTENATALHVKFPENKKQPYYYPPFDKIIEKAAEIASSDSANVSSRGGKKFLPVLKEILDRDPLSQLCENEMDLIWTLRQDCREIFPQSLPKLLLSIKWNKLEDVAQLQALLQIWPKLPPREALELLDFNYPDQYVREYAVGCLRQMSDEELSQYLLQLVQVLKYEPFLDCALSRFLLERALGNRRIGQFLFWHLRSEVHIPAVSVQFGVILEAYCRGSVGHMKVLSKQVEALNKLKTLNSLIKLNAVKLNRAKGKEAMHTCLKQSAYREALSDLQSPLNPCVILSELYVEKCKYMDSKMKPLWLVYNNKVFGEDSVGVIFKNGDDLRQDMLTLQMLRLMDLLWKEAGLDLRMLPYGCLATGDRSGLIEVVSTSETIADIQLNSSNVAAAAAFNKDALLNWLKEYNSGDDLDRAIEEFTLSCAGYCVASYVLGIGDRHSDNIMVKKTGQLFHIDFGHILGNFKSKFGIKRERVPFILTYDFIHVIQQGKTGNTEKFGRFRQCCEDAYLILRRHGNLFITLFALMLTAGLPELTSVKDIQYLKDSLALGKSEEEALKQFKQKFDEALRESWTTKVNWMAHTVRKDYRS

Cytochrome P450 3A4 = Cytochrome P450 3A4 (Homo sapiens, UniProt P08684); test: Inhibition of human recombinant CYP3A4
Sequence of Cytochrome P450 3A4 (P08684 whole entry, canonical isoform): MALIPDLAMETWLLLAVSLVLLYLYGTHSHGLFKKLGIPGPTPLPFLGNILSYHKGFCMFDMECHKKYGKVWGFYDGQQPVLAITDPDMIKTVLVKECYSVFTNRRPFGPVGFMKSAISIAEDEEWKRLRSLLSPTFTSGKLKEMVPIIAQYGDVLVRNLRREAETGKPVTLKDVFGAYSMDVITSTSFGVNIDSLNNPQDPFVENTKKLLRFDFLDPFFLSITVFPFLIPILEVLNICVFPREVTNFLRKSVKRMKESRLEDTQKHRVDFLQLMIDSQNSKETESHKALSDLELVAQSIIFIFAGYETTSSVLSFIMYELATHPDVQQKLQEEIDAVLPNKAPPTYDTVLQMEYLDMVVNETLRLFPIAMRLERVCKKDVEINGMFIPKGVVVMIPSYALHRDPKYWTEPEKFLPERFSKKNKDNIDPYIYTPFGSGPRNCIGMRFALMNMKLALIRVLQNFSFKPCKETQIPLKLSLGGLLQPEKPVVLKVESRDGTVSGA

[4] = target: T2, Phosphatidylinositol 4,5-bisphosphate 3-kinase catalytic subunit delta isoform (Homo sapiens, UniProt O00329); test: Inhibition of human PI3Kdelta after 15 mins
T2 sequence (O00329 whole entry): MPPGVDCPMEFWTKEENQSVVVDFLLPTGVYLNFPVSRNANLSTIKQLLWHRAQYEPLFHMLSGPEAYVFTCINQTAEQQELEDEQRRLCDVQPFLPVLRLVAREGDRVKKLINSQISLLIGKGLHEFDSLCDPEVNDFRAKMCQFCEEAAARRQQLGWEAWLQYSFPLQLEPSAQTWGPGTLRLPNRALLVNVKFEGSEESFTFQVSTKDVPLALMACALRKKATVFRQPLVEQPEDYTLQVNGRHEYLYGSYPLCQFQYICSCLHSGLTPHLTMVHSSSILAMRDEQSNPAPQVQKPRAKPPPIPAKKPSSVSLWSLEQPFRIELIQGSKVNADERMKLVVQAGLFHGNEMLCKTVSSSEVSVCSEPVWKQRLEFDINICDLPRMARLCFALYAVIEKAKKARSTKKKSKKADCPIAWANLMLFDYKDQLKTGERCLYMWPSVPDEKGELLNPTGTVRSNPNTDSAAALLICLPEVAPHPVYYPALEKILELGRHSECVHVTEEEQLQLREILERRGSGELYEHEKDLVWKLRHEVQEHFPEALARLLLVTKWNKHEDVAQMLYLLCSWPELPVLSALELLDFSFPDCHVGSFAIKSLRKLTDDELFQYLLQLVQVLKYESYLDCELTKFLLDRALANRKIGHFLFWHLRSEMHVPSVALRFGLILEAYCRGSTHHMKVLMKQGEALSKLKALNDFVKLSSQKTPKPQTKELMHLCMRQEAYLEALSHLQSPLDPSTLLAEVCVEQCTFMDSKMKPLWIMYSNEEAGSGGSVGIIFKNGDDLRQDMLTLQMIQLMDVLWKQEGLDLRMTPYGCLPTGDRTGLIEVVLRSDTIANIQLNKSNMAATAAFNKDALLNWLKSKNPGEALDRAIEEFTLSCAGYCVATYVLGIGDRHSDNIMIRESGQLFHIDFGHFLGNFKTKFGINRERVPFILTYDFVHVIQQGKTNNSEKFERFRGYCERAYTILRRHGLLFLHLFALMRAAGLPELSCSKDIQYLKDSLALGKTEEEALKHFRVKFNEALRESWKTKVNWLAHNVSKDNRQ

[5] = target: T1, Phosphatidylinositol 4,5-bisphosphate 3-kinase catalytic subunit beta isoform; test: Inhibition of PI3Kbeta in human PTEN-deficient PC3 cells assessed as Akt phosphorylation at S473; assay type: cell-based, PC-3
[6] = target: Phosphatidylinositol 4,5-bisphosphate 3-kinase catalytic subunit gamma isoform (Homo sapiens, UniProt P48736); test: Inhibition of human PI3Kgamma after 15 mins
Sequence of Phosphatidylinositol 4,5-bisphosphate 3-kinase catalytic subunit gamma isoform (P48736 whole entry, canonical isoform): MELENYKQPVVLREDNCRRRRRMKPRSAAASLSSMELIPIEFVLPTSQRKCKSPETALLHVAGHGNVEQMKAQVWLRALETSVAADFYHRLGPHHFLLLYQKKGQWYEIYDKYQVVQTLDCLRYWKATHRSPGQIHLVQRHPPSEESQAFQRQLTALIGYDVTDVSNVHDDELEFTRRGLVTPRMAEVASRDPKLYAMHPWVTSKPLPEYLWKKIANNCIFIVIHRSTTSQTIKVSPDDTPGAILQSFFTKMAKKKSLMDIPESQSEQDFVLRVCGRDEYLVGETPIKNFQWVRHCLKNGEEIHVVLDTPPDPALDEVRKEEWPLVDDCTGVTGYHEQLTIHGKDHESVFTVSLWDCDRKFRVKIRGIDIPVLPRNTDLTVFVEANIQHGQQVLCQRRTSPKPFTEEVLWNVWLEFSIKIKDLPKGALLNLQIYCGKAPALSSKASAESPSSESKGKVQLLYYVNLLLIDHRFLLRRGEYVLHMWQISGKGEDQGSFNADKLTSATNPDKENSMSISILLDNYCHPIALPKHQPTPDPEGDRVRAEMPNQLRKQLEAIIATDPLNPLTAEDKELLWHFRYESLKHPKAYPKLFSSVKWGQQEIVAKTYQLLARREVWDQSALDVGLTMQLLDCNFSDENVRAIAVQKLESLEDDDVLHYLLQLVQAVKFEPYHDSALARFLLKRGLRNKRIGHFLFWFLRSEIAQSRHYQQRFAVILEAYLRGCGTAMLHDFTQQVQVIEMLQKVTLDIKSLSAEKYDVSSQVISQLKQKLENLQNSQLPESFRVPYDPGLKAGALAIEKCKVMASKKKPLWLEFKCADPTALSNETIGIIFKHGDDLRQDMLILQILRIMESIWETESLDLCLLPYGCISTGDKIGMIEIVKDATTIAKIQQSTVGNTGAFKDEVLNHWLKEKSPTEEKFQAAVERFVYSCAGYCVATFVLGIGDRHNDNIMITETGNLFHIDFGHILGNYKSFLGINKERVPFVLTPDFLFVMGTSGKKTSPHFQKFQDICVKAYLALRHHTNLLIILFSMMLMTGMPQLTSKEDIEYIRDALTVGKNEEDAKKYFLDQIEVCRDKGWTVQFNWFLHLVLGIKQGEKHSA

[7] = Drug metabolism in mouse liver microsomes assessed as compound lability; assay type: ADME, Microsome; settings: for Drug metabolism: microsomes; for metabolised: liver microsomes, read-out: Drug metabolism
[8] = Drug metabolism in human liver microsomes assessed as compound lability; assay type: ADME; settings: liver microsomes, read-out: Drug metabolism
Mus musculus [9] = test: Inhibition of PI3Kbeta in SCID mouse harboring human PTEN-deficient PC3 cells assessed as Akt phosphorylation at S473 at 150 mg/kg, po after 1 hr; assay type: functional, organism-based; design: dose 150 mg/kg; settings: PC-3
Mus musculus [10] = test: Inhibition of PI3Kbeta in SCID mouse harboring human PTEN-deficient PC3 cells assessed as Akt phosphorylation at S473 at 150 mg/kg, po after 16 hrs; assay type: functional, organism-based; design: dose 150 mg/kg; settings: PC-3
Mus musculus [11] = test: Inhibition of PI3Kbeta in SCID mouse harboring human PTEN-deficient PC3 cells assessed as Akt phosphorylation at S473 at 150 mg/kg, po after 7 hrs; assay type: functional, organism-based; design: dose 150 mg/kg; settings: PC-3
[12] = Thermodynamic solubility of the compound in 50 mM Phosphate buffer at pH 7.4 after 16 hrs by HPLC analysis; assay type: physicochemical; settings: phosphate buffer, pH 7.4; read-out: Therm_solubility
Caco-2 = test: as §1; assay type: ADME, cell-based

Sequence of Phosphatidylinositol 4,5-bisphosphate 3-kinase catalytic subunit alpha isoform (P42336 whole entry, canonical isoform): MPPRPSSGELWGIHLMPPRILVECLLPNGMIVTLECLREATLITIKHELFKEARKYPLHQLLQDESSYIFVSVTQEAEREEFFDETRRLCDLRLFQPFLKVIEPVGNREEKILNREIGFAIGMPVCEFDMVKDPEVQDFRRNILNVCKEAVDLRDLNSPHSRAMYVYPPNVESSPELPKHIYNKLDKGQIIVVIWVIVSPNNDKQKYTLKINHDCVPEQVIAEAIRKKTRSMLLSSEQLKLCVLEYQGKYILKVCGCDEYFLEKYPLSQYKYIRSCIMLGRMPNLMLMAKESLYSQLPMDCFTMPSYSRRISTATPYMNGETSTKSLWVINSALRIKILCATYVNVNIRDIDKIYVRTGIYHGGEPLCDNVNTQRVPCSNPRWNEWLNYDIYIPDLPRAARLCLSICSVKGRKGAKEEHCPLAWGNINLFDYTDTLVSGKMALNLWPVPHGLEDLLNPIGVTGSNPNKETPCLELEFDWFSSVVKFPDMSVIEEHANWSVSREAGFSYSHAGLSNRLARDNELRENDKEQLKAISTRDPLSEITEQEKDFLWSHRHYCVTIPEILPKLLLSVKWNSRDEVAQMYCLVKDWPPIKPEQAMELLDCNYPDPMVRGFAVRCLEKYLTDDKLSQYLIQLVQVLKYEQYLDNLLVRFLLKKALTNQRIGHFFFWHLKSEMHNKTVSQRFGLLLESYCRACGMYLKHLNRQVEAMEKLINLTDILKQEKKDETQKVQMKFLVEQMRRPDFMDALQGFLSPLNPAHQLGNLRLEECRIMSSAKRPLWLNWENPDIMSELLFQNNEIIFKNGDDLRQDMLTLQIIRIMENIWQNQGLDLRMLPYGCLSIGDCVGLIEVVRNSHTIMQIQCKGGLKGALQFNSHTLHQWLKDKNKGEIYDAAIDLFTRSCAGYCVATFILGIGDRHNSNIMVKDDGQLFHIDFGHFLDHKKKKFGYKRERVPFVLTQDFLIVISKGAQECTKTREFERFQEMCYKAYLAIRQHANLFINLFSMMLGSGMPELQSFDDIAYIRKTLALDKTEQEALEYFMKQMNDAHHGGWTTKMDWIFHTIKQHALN

SMILES | IC50 [1] | Papp [2] | IC50 [3] | IC50 (Cytochrome P450 3A4) | IC50 [4] | IC50 [5] | IC50 [6] | Drug metabolism [7] | metabolised [8] | inhibition (Mus musculus [9]) | inhibition (Mus musculus [10]) | inhibition (Mus musculus [11]) | solubility thermodynamic at 16 h [12] | metabolised [7] | Papp (Caco-2)
CC1Cc2c(Br)cccc2N1C(=O)Cc1nc(N2CCOCC2)sc1C(N)=O (single isomer, unassigned; (-)) | 1320 nM | 20.9 ×10⁻⁶ cm/s | 13 nM | 25000 nM | 92 nM | 3 nM | 3260 nM | 89% | 85% |  |  |  |  |  | 
NC(=O)c1sc(N2CCOCC2)nc1CC(=O)Nc1ccc(F)c(Cl)c1 | 8280 nM |  | 45 nM |  | 227 nM |  | > 10000 nM |  |  |  |  |  |  |  | 
O=C(O)c1sc(N2CCOCC2)nc1CC(=O)N1CCc2ccccc21 | > 10000 nM |  | 270 nM |  | 1550 nM | 1420 nM | > 10000 nM |  |  |  |  |  |  |  | 
CC1CN(C(=O)Cc2nc(N3CCOCC3)sc2C(N)=O)c2ccccc21 (racemic) | > 10000 nM |  | 130 nM |  | 567 nM | 75 nM | 4200 nM |  |  |  |  |  |  |  | 
CC1Cc2c(Br)cccc2N1C(=O)Cc1nc(N2CCOCC2)sc1C(=O)O (single isomer, unassigned; enantiomer 1) |  |  |  |  |  |  |  |  |  | Active | Active | Active |  |  | 
NC(=O)c1sc(N2CCOCC2)nc1CC(=O)N1CCc2cc(Cl)ccc21 | > 10000 nM |  | 166 nM |  | 1860 nM | 110 nM | > 10000 nM |  |  |  |  |  |  |  | 
NC(=O)c1sc(N2CCOCC2)nc1CC(=O)N1CCc2c(Cl)cccc21 | 6330 nM |  | 49 nM | 40000 nM | 277 nM | 122 nM | > 10000 nM |  | 40% |  |  |  | 2 µM (≈ 0.814 µg/mL) | 61% | 
O=C(O)c1sc(N2CCOCC2)nc1CC(=O)N1CCc2c(Br)cccc21 | 1120 nM | 0.2 ×10⁻⁶ cm/s | 11 nM | 40000 nM | 133 nM | 1780 nM | > 10000 nM |  | 8% |  |  |  |  | 0% | 
CC1Cc2cc(F)ccc2N1C(=O)Cc1nc(N2CCOCC2)sc1C(=O)O (stereo not drawn) | > 10000 nM | 0.9 ×10⁻⁶ cm/s | 15 nM | 40000 nM | 219 nM | 817 nM | > 10000 nM |  | 3% |  |  |  | 4930 µM (≈ 2000 µg/mL) | 3% | 
NC(=O)c1sc(N2CCOCC2)nc1CC(=O)N1CCc2c(F)cccc21 | 7230 nM |  | 138 nM |  | 485 nM | 38 nM | > 10000 nM |  |  |  |  |  |  |  | 
CC1Cc2cc(F)ccc2N1C(=O)Cc1nc(N2CCOCC2)sc1C(N)=O (stereo not drawn) | > 10000 nM | 19.3 ×10⁻⁶ cm/s | 20 nM | 40 nM | 127 nM | 14 nM | > 10000 nM |  | 42% |  |  |  | 45 µM (≈ 18.2 µg/mL) | 48% | 
CC1Cc2c(Cl)cccc2N1C(=O)Cc1nc(N2CCOCC2)sc1C(N)=O (stereo not drawn) | > 10000 nM | 29.6 ×10⁻⁶ cm/s | 10 nM |  | 58 nM | 13 nM | > 10000 nM |  | 77% |  |  |  | 2 µM (≈ 0.842 µg/mL) | 70% | 
CC1Cc2ccccc2N1C(=O)Cc1nc(N2CCOCC2)sc1C(N)=O (racemic) | > 10000 nM |  | 178 nM |  | 435 nM | 40 nM | > 10000 nM |  |  |  |  |  |  |  | 
NC(=O)c1sc(N2CCOCC2)nc1CC(=O)N1CCc2c(Br)cccc21 | 2150 nM | 24.7 ×10⁻⁶ cm/s | 11 nM | 40000 nM | 178 nM | 22 nM | 8130 nM |  | 57% |  |  |  | 2 µM (≈ 0.903 µg/mL) | 63% | 
NC(=O)c1sc(N2CCOCC2)nc1CC(=O)N1CCc2ccccc21 | 4080 nM | 16 ×10⁻⁶ cm/s | 71 nM | 40000 nM | 230 nM | 25 nM | > 10000 nM |  | 35% |  |  |  | 3 µM (≈ 1.12 µg/mL) | 44% | 
O=C(O)c1sc(N2CCOCC2)nc1CC(=O)N1CCc2cc(Br)ccc21 | > 10000 nM |  | 308 nM |  | 1000 nM | 3000 nM | > 10000 nM |  |  |  |  |  |  |  | 
NC(=O)c1sc(N2CCOCC2)nc1CC(=O)N1CCc2cc(Br)ccc21 | > 10000 nM |  | 240 nM |  | 483 nM | 420 nM | > 10000 nM |  |  |  |  |  |  |  | 
O=C(O)c1sc(N2CCOCC2)nc1CC(=O)N1CCc2c(Cl)cccc21 | 2210 nM | 0.7 ×10⁻⁶ cm/s | 23 nM | 40000 nM | 245 nM | 2000 nM | > 10000 nM |  | 1% |  |  |  | 1480 µM (≈ 602 µg/mL) | 9% | 
CC1Cc2c(Br)cccc2N1C(=O)Cc1nc(N2CCOCC2)sc1C(=O)O (single isomer, unassigned; enantiomer 2) | 3110 nM |  | 84 nM | 40000 nM | 861 nM | 307 nM | 10000 nM | 7% | 0% |  |  |  | 4290 µM (≈ 2000 µg/mL) |  | 0.4 ×10⁻⁶ cm/s
CC1Cc2ccccc2N1C(=O)Cc1nc(N2CCOCC2)sc1C(=O)O (racemic) | > 10000 nM |  | 340 nM |  | 2720 nM | 2310 nM | > 10000 nM |  |  |  |  |  |  |  | 
CC1Cc2c(Cl)cccc2N1C(=O)Cc1nc(N2CCOCC2)sc1C(=O)O (stereo not drawn) | > 10000 nM | 0.9 ×10⁻⁶ cm/s | 8 nM | 40000 nM | 149 nM | 876 nM | > 10000 nM |  | 8% |  |  |  | 4740 µM (≈ 2000 µg/mL) | 17% | 

Source: ChEMBL document CHEMBL3124816, “Preparation and optimization of new 4-(2-(indolin-1-yl)-2-oxoethyl)-2-morpholinothiazole-5-carboxylic acid and amide derivatives as potent and selective PI3Kβ inhibitors” (Bioorg Med Chem Lett, 2014)
